Measurements from PubChem BioAssay AID1259411 (Chemical Carcinogenesis Research Information System (CCRIS), 2018).
Active and inactive are the calls of the source. No rule for the calls is given here.

Test system: rodent carcinogenicity bioassays, tumor incidence
Test: CCRIS carcinogenicity studies
Procedure, shortened: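 Archive of carcinogenicity, mutagenicity, tumor promotion and tumor inhibition results drawn from journals, NCI reports and other sources, expert-reviewed; covers 1985-2011 and is no longer updated.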

## CNc1ccc(N(CCO)CCO)cc1[N+](=O)[O-]
Species: MOUSE, Strain/Sex: B6C3F1/FEMALE, Route: ORAL, Dose: 0, 3000, 6000 PPM IN DIET FOR 103 WK FOR 103 WK (STUDY DURATION: 105 WK), Dose: 0, 3000, 6000 PPM IN DIET FOR 103 WK FOR 103 WK (STUDY DURATION: 105 WK), Tumor Site: Type of Lesion: LIVER: HEPATOCELLULAR CARCINOMA, HEPATOCELLULAR ADENOMA OR CARCINOMA
  carcinogen call: active; positive
Species: MOUSE, Strain/Sex: B6C3F1/MALE, Route: ORAL, Dose: 0, 1500, 3000 PPM IN DIET FOR 103 WK FOR 103 WK (STUDY DURATION: 105 WK), Dose: 0, 1500, 3000 PPM IN DIET FOR 103 WK FOR 103 WK (STUDY DURATION: 105 WK), Tumor Site: Type of Lesion: LIVER: HEPATOCELLULAR ADENOMA, HEPATOCELLULAR CARCINOMA, THYROID GLAND: FOLLICULAR CELL ADENOMA
  carcinogen call: active; positive
Species: RAT, Strain/Sex: F344/FEMALE, Route: ORAL, Dose: 0, 1500, 3000 PPM IN DIET FOR 103 WK FOR 103 WK (STUDY DURATION: 105 WK), Dose: 0, 1500, 3000 PPM IN DIET FOR 103 WK FOR 103 WK (STUDY DURATION: 105 WK), Tumor Site: Type of Lesion: LUNG: ALVEOLAR/BRONCHIOLAR ADENOMA OR CARCINOMA, UTERUS: ENDOMETRIAL STROMAL POLYP
  carcinogen call: active; positive
Species: RAT, Strain/Sex: F344/MALE, Route: ORAL, Dose: 0, 1500, 3000 PPM IN DIET FOR 103 WK (STUDY DURATION: 105 WK), Dose: 0, 1500, 3000 PPM IN DIET FOR 103 WK (STUDY DURATION: 105 WK), Tumor Site: Type of Lesion: LIVER: HEPATOCELLULAR NEOPLASTIC NODULE OR CARCINOMA
  carcinogen call: equivocal

## C=CN(CC)N=O
Species: HAMSTER, Strain/Sex: SYRIAN/FEMALE, Route: SUBCUTANEOUS, Dose: 0.63-5 MG/KG IN OLIVE OIL 1/WK FOR LIFE, Tumor Site: Type of Lesion: NASAL CAVITY: PAPILLOMA, EPIDERMOID CARCINOMA, ADENOCARCINOMA, LARYNX: PAPILLOMA, EPIDERMOID CARCINOMA, TRACHEA: PAPILLO, Tumor Site: Type of Lesion: NASAL CAVITY: PAPILLOMA, EPIDERMOID CARCINOMA, ADENOCARCINOMA, LARYNX: PAPILLOMA, EPIDERMOID CARCINOMA, TRACHEA: PAPILLO
  carcinogen call: active; positive
Species: HAMSTER, Strain/Sex: SYRIAN/MALE, Route: SUBCUTANEOUS, Dose: 0.63-5 MG/KG IN OLIVE OIL 1/WK FOR LIFE, Tumor Site: Type of Lesion: NASAL CAVITY: PAPILLOMA, EPIDERMOID CARCINOMA, ADENOCARCINOMA, LARYNX: PAPILLOMA, EPIDERMOID CARCINOMA, TRACHEA: PAPILLO, Tumor Site: Type of Lesion: NASAL CAVITY: PAPILLOMA, EPIDERMOID CARCINOMA, ADENOCARCINOMA, LARYNX: PAPILLOMA, EPIDERMOID CARCINOMA, TRACHEA: PAPILLO
  carcinogen call: active; positive
Species: RAT, Route: INTRAVENOUS, Dose: 10.0 MG/KG 1/WK(MEAN TOTAL DOSE 0.25 G/KG), Tumor Site: Type of Lesion: ESOPHAGUS
  carcinogen call: active; positive
Species: RAT, Route: ORAL, Dose: 1.30, 2.50 MG/KG 7/WK (MEAN TOTAL DOSE 0.23; 0.42 G/KG), Dose: 1.30, 2.50 MG/KG 7/WK (MEAN TOTAL DOSE 0.23; 0.42 G/KG), Tumor Site: Type of Lesion: ESOPHAGUS
  carcinogen call: active; positive

## c1ccc2nc3ccccc3cc2c1
Species: RAT, Strain/Sex: OSBORNE-MENDEL/FEMALE, Route: LUNG IMPLANT, Dose: 0, 0.2, 1.0, 5.0 MG IN BEESWAX/TRICAPRYLIN (STUDY DURATION: LIFETIME), Dose: 0, 0.2, 1.0, 5.0 MG IN BEESWAX/TRICAPRYLIN (STUDY DURATION: LIFETIME)
  carcinogen call: inactive; negative

## C[C@](N)(Cc1ccc(O)c(O)c1)C(=O)O
Species: MOUSE, Strain/Sex: B6C3F1/FEMALE, Route: ORAL, Dose: 0, 6300, 12500 PPM IN FEED FOR 103 WK (STUDY DURATION: 104 WK), Dose: 0, 6300, 12500 PPM IN FEED FOR 103 WK (STUDY DURATION: 104 WK)
  carcinogen call: inactive; negative
Species: MOUSE, Strain/Sex: B6C3F1/MALE, Route: ORAL, Dose: 0, 6300, 12500 PPM IN FEED FOR 103 WK (STUDY DURATION: 104 WK), Dose: 0, 6300, 12500 PPM IN FEED FOR 103 WK (STUDY DURATION: 104 WK), Tumor Site: Type of Lesion: KIDNEY: RENAL TUBULAR CELL ADENOMA OR ADENOCARCINOMA
  carcinogen call: equivocal
Species: RAT, Strain/Sex: F344/FEMALE, Route: ORAL, Dose: 0, 3100, 6300 PPM IN FEED FOR 103 WK (STUDY DURATION: 104 WK), Dose: 0, 3100, 6300 PPM IN FEED FOR 103 WK (STUDY DURATION: 104 WK)
  carcinogen call: inactive; negative
Species: RAT, Strain/Sex: F344/MALE, Route: ORAL, Dose: 0, 3100, 6300 PPM IN FEED FOR 103 WK (STUDY DURATION: 104 WK), Dose: 0, 3100, 6300 PPM IN FEED FOR 103 WK (STUDY DURATION: 104 WK)
  carcinogen call: inactive; negative

## CN1CCN(N=O)CC1
Species: RAT, Strain/Sex: SPRAGUE-DAWLEY/FEMALE, Route: INHALATION, Dose: 0, 2.4 PPM 14.5 HR/D FOR 74 D OVER 7.5 MONTHS (STUDY DURATION: 350 D), Tumor Site: Type of Lesion: NASAL CAVITY: TUMOR
  carcinogen call: active; positive
